Assay results: the supplement of paper PMC11952222, “Development and comparison of single FLT3-inhibitors to dual FLT3/TAF1-inhibitors as an anti-leukemic approach” (PLOS One, 2025)
± gives the standard deviation of the averaged measurements.

Columns and labels:
Assay in all cases: cell viability (CellTiter-Glo luminescence) relative to DMSO (fraction of DMSO control); higher = higher signal (more live cells for CellTiter-Glo)
Conditions in all cases: 72 h
KASUMI-1 = system: KASUMI-1
Procedure: (§1)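 MOLM13, DU4475, HDQP1 and IGROV1 cells were treated with compounds in 384-well format for 72 h (KASUMI-1 in 96-well plates, RPMI + 10% FCS, 72 h). Viability was read with CellTiter-Glo and cell death with CellTox Green, both normalised to DMSO vehicle. Doses ranged 0.001-30 µM.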

DU4475 = system: DU4475
Procedure: as §1

HDQP1 = system: HDQP1
Procedure: as §1

MOLM13 = system: MOLM13
Procedure: as §1

IGROV1 = system: IGROV1
Procedure: as §1

Compound	cell viability (KASUMI-1; 0.000948683 µM)	cell viability (KASUMI-1; 0.003 µM)	cell viability (KASUMI-1; 0.00948683 µM)	cell viability (KASUMI-1; 0.03 µM)	cell viability (KASUMI-1; 0.3 µM)	cell viability (KASUMI-1; 0.948683 µM)	cell viability (KASUMI-1; 3 µM)	cell viability (KASUMI-1; 9.48683 µM)	cell viability (KASUMI-1; 30 µM)	cell viability (DU4475; 0.01 µM)	cell viability (DU4475; 0.1 µM)	cell viability (DU4475; 0.3 µM)	cell viability (DU4475; 1 µM)	cell viability (DU4475; 3 µM)	cell viability (DU4475; 10 µM)	cell viability (DU4475; 30 µM)	cell viability (HDQP1; 0.01 µM)	cell viability (HDQP1; 0.1 µM)	cell viability (HDQP1; 0.3 µM)	cell viability (HDQP1; 1 µM)	cell viability (HDQP1; 3 µM)	cell viability (HDQP1; 10 µM)	cell viability (HDQP1; 30 µM)	cell viability (MOLM13; 0.01 µM)	cell viability (MOLM13; 0.1 µM)	cell viability (MOLM13; 0.3 µM)	cell viability (MOLM13; 1 µM)	cell viability (MOLM13; 3 µM)	cell viability (MOLM13; 10 µM)	cell viability (MOLM13; 30 µM)	cell viability (IGROV1; 0.01 µM)	cell viability (IGROV1; 0.1 µM)	cell viability (IGROV1; 0.3 µM)	cell viability (IGROV1; 1 µM)	cell viability (IGROV1; 3 µM)	cell viability (IGROV1; 10 µM)	cell viability (IGROV1; 30 µM)	cell viability (KASUMI-1; 0.0948683 µM)
Cc1cc(-c2cc(NC(=O)c3ccc(C(C)(C)C)cc3)[nH]n2)ccn1 [3i-1246]	1.076 ± 0.0022	1.13 ± 0.067	1.17 ± 0.087	1.22 ± 0.064	1.1 ± 0.073	0.962 ± 0.2	0.566 ± 0.018	0.239 ± 0.0055	0.00978 ± 0.0007	1 ± 0.023	1 ± 0.048	0.983 ± 0.023	0.966 ± 0.045	0.92 ± 0.029	0.435 ± 0.12	0.00106 ± 0.0011	0.98 ± 0.034	0.99 ± 0.031	0.986 ± 0.057	0.928 ± 0.083	0.943 ± 0.068	0.628 ± 0.098	0.178 ± 0.052	0.959 ± 0.052	0.755 ± 0.043	0.418 ± 0.062	0.21 ± 0.031	0.0386 ± 0.018	0.0136 ± 0.037	0.000242 ± 0.0027	0.998 ± 0.05	0.958 ± 0.072	0.866 ± 0.042	0.864 ± 0.095	0.811 ± 0.053	0.587 ± 0.085	0.19 ± 0.051	–
CC(C)(C)c1cc(NC(=O)Nc2ccc(-c3cn4c(n3)sc3cc(OCCN5CCOCC5)ccc34)cc2)no1 [quizartinib]	–	–	–	–	–	–	–	–	–	1 ± 0.03	0.813 ± 0.038	0.336 ± 0.06	0.196 ± 0.052	0.0647 ± 0.034	0.317 ± 0.075	0.0882 ± 0.042	0.984 ± 0.052	1.01 ± 0.051	0.87 ± 0.054	0.807 ± 0.021	0.716 ± 0.088	0.84 ± 0.095	0.69 ± 0.13	0.00342 ± 0.00075	0.00261 ± 0.00061	0.00141 ± 0.0005	0.00194 ± 0.00081	0.000901 ± 0.00082	0.00066 ± 0.00036	0.000483 ± 0.00064	1.08 ± 0.081	1.07 ± 0.1	0.721 ± 0.12	0.633 ± 0.12	0.468 ± 0.12	0.614 ± 0.093	0.384 ± 0.069	–
CC(C)(C)c1ccc(C(=O)Nc2cc(-c3ccccc3)n[nH]2)cc1 [3i-1247]	1.26 ± 0.087	1.338 ± 0.0028	1.48 ± 0.063	1.411 ± 0.0049	1.37 ± 0.064	1.2 ± 0.041	0.5738 ± 0.0019	0.1148 ± 0.00061	0.0202 ± 0.0019	1.02 ± 0.037	0.998 ± 0.027	0.955 ± 0.025	0.873 ± 0.027	0.446 ± 0.053	0.028 ± 0.0065	0.00743 ± 0.006	0.999 ± 0.019	1 ± 0.016	0.943 ± 0.046	0.877 ± 0.062	0.786 ± 0.061	0.719 ± 0.071	0.584 ± 0.12	0.858 ± 0.073	0.388 ± 0.12	0.19 ± 0.062	0.0317 ± 0.0089	0.00462 ± 0.0058	0.00157 ± 0.00088	0.000514 ± 0.00038	0.974 ± 0.071	0.955 ± 0.11	0.803 ± 0.035	0.739 ± 0.034	0.467 ± 0.062	0.365 ± 0.019	0.243 ± 0.049	1.38 ± 0.063
Cn1cc(-c2cc(NC(=O)c3ccc(C(C)(C)C)cc3)n[nH]2)ccc1=O [3i-1248]	1.15 ± 0.053	1.25 ± 0.078	1.36 ± 0.027	1.503 ± 0.0079	1.41 ± 0.072	1.37 ± 0.046	1.11 ± 0.061	0.455 ± 0.036	0.00672 ± 0.00072	1.01 ± 0.029	1.01 ± 0.031	1 ± 0.035	0.984 ± 0.043	0.893 ± 0.054	0.572 ± 0.078	0.0157 ± 0.016	0.995 ± 0.032	0.989 ± 0.033	0.981 ± 0.082	0.973 ± 0.046	0.913 ± 0.048	0.807 ± 0.054	0.269 ± 0.13	0.988 ± 0.09	0.912 ± 0.088	0.773 ± 0.053	0.459 ± 0.07	0.179 ± 0.049	0.00744 ± 0.0056	-0.000138 ± 0.00087	0.989 ± 0.047	0.982 ± 0.075	0.953 ± 0.12	0.861 ± 0.067	0.783 ± 0.047	0.568 ± 0.075	0.0746 ± 0.044	1.43 ± 0.11
C=CCCn1cc(-c2cc(C(=O)N3CCOCC3)cc3c2ncn3C)c2cc[nH]c2c1=O [GNE-371]	–	–	–	–	–	–	–	–	–	1.01 ± 0.017	1.01 ± 0.026	1.02 ± 0.023	1.01 ± 0.029	1.02 ± 0.027	1.03 ± 0.036	1.05 ± 0.051	1.04 ± 0.04	1.03 ± 0.047	1.02 ± 0.036	0.975 ± 0.04	0.971 ± 0.055	0.999 ± 0.056	0.979 ± 0.047	1.01 ± 0.041	0.989 ± 0.05	0.986 ± 0.025	0.994 ± 0.031	0.986 ± 0.056	0.95 ± 0.067	0.928 ± 0.091	1.07 ± 0.11	1.02 ± 0.07	0.935 ± 0.064	0.975 ± 0.052	0.95 ± 0.11	0.931 ± 0.043	0.958 ± 0.054	–
